Source: patent US9546401B2, “Assays and methods for selecting a treatment regimen for a subject with depression” (The General Hospital Corporation, priority 2011, dated 2017)
Like-named read-outs stand apart in the source and are kept apart here.

Tested on: MDD patients carrying the indicated biomarkers
Method: Folate levels are classified as either low (<=2.5 ng/ml) or normal; and homocysteine levels as either normal or elevated (>=[…]). The presence or absence of at least one […] allele for the MTHFR gene are entered as a dichotomous variable (present or absent). […] Using folate as an example predicator, the presence or absence of a low serum-folate level along with treatment assignment can be entered in a 2×2, factorial ANOVA, using depression improvement scores (baseline minus endpoint HAM-D-17 scores) as the dependant variable. […] Similar analyses (i.e. separate 2×2 ANOVA's) can be performed substituting the presence of low folate levels for the presence of other predictors as described herein. Similarly, the effect of other predictors can be indicated by the interaction term representing the potential modulating influence of those variables.
The efficacy effect is determined by measuring the mean change in the HAMD-17 score and HAMD-28 score by the end of Phase I and Phase II, as compared to the baseline.

[1] = Phase I, BMI < 30 kg/m^2 and SAM/SAH >= median
[2] = Phase I, BMI >= 30 kg/m^2 and HNE-His >= median
[3] = Phase I, BMI*treat (interaction of BMI with the treatment)
[4] = Phase I, MTHFR 677 CC and BMI < 30 kg/m^2
[5] = Phase I, MTHFR 677 CT or TT and BMI >= 30 kg/m^2
[6] = Phase I, MTHFR 677 CT or TT and HNE-His >= median
[7] = Phase I, MTR 2756 AA and BMI < 30 kg/m^2
[8] = Phase I, MTR 2756 AA and HNE-His < median
[9] = Phase I, MTR 2756 AA and MTRR 66 AA
[10] = Phase I, MTR 2756 AA and MTRR 66 AA and SAM/SAH >= median
[11] = Phase I, MTR 2756 AA and SAM/SAH >= median
[12] = Phase I, MTR 2756 AG or GG and BMI >= 30 kg/m^2
[13] = Phase I, MTR 2756 AG or GG and MTRR 66 AG or GG
[14] = Phase I, MTR 2756 AG or GG and MTRR 66 AG or GG and HNE-His >= median
[15] = Phase I, MTRR 66 AA and SAM/SAH >= median
[16] = Phase I, MTRR 66 AG or GG and HNE-His >= median
[17] = Phase I, SAM/SAH < median and HNE-His >= median
[18] = Phase I, SAM/SAH >= median and HNE-His < median
[19] = Phase II, 25 =< BMI < 30 kg/m^2

CN1c2c(nc(N)[nH]c2=O)NC[C@@H]1CNc1ccc(C(=O)N[C@@H](CCC(=O)O)C(=O)O)cc1 [6(S)-5-MTHF, 6(S)-5-methyltetrahydrofolate]
Effect on change in HAMD-28 score (Phase I, BMI < 30 kg/m^2 and HNE-His < median): 4.606 | Effect on change in HAMD-17 score [1]: 4.333 | Effect on change in HAMD-28 score [1]: 4.333 | Effect on change in HAMD-17 score (Phase I, BMI >= 30 kg/m^2): −6.414 | Effect on change in HAMD-28 score (Phase I, BMI >= 30 kg/m^2): −6.677 | Effect on change in HAMD-17 score [2]: −6.569 | Effect on change in HAMD-28 score [2]: −6.510 | Effect on change in HAMD-17 score (Phase I, BMI >= 30 kg/m^2 and SAM/SAH < median): −5.611 | Effect on change in HAMD-28 score (Phase I, BMI >= 30 kg/m^2 and SAM/SAH < median = 2.71 (plasma)): −6.306 | Effect on change in HAMD-17 score [3]: −0.567 | Effect on change in HAMD-28 score [3]: −0.668 | Effect on change in HAMD-17 score [4]: 4.500 | Effect on change in HAMD-28 score [4]: 2.769 | Effect on change in HAMD-17 score (Phase I, MTHFR 677 CC and HNE-His < median): −1.471 | Effect on change in HAMD-28 score (Phase I, MTHFR 677 CC and HNE-His < median = 3.28 (plasma)): −2.821 | Effect on change in HAMD-17 score [5]: −8.738 | Effect on change in HAMD-28 score [5]: −9.857 | Effect on change in HAMD-17 score [6]: −7.143 | Effect on change in HAMD-28 score [6]: −6.929 | Effect on change in HAMD-17 score (Phase I, MTR 2756 AA): −0.621 | Effect on change in HAMD-28 score (Phase I, MTR 2756 AA): 0.409 | Effect on change in HAMD-17 score [7]: 4.476 | Effect on change in HAMD-28 score [7]: 5.524 | Effect on change in HAMD-17 score [8]: 0.306 | Effect on change in HAMD-28 score [8]: 0.639 | Effect on change in HAMD-17 score [9]: 3.125 | Effect on change in HAMD-28 score [9]: 5.000 | Effect on change in HAMD-17 score (Phase I, MTR 2756 AA and MTRR 66 AA and HNE-His < median): 3.000 | Effect on change in HAMD-28 score (Phase I, MTR 2756 AA and MTRR 66 AA and HNE-His < median = 3.28 (plasma)): 4.200 | Effect on change in HAMD-17 score [10]: −0.400 | Effect on change in HAMD-28 score [10]: −1.000 | Effect on change in HAMD-17 score [11]: −1.556 | Effect on change in HAMD-28 score [11]: −1.278 | Effect on change in HAMD-17 score [12]: −12.905 | Effect on change in HAMD-28 score [12]: −18.762 | Effect on change in HAMD-17 score (Phase I, MTR 2756 AG or GG and HNE-His >= median): −7.125 | Effect on change in HAMD-28 score (Phase I, MTR 2756 AG or GG and HNE-His >= median = 3.28 (plasma)): −9.950 | Effect on change in HAMD-17 score [13]: −6.900 | Effect on change in HAMD-28 score [13]: −9.996 | Effect on change in HAMD-17 score [14]: −7.200 | Effect on change in HAMD-28 score [14]: −9.800 | Effect on change in HAMD-17 score (Phase I, MTR 2756 AG or GG and MTRR 66 AG or GG and SAM/SAH < median): −9.000 | Effect on change in HAMD-28 score (Phase I, MTR 2756 AG or GG and MTRR 66 AG or GG and SAM/SAH < median = 2.71 (plasma)): −12.741 | Effect on change in HAMD-17 score (Phase I, MTR 2756 AG or GG and SAM/SAH < median): −9.800 | Effect on change in HAMD-28 score (Phase I, MTR 2756 AG or GG and SAM/SAH < median = 2.71 (plasma)): −14.993 | Effect on change in HAMD-17 score (Phase I, MTR 2756 AG/GG): −7.143 | Effect on change in HAMD-28 score (Phase I, MTR 2756 AG/GG): −10.926 | Effect on change in HAMD-17 score (Phase I, MTRR 66 AA and HNE-His < median): −1.167 | Effect on change in HAMD-28 score (Phase I, MTRR 66 AA and HNE-His < median = 3.28 (plasma)): −4.167 | Effect on change in HAMD-17 score [15]: −0.125 | Effect on change in HAMD-28 score [15]: 0.500 | Effect on change in HAMD-17 score [16]: −5.958 | Effect on change in HAMD-28 score [16]: −6.975 | Effect on change in HAMD-17 score (Phase I, MTRR 66 AG or GG and SAM/SAH < median): −5.062 | Effect on change in HAMD-28 score (Phase I, MTRR 66 AG or GG and SAM/SAH < median = 2.71 (plasma)): −6.498 | Effect on change in HAMD-17 score [17]: −3.670 | Effect on change in HAMD-28 score [17]: −4.227 | Effect on change in HAMD-17 score (Phase I, SAM/SAH >= med): −0.946 | Effect on change in HAMD-28 score (Phase I, SAM/SAH >= med = 2.71 (plasma)): −1.148 | Effect on change in HAMD-17 score [18]: −0.250 | Effect on change in HAMD-28 score [18]: −0.750 | Effect on change in HAMD-28 score (Phase I, SAM/SAH*treat, first line under HAMD28): 0.495 | Effect on change in HAMD-17 score (Phase I, baseHAMD-17*treat (interaction of base HAMD-17 with the treatment)): 0.165 | Effect on change in HAMD-17 score [19]: 2.000 | Effect on change in HAMD-28 score [19]: 0.000 | Effect on change in HAMD-17 score (Phase II, BMI < 25): −1.400
